In ChEMBL document CHEMBL3044829, “New carbodithioate derivatives: synthesis, characterization, and in vitro antibacterial, antifungal, antitubercular, and antimalarial activity” (Med Chem Res, 2013):
Values after ≈ are worked out from the molar mass of the structure shown.

Legend:
[1] = test system: Mycobacterium tuberculosis; test: Antitubercular activity against Mycobacterium tuberculosis H37Rv MTCC 200 assessed as growth inhibition at 6.25 ug/ml by BACTEC MGIT method; type: functional
[2] = test system: Mycobacterium tuberculosis; test: Antitubercular activity against Mycobacterium tuberculosis H37Rv MTCC 200 assessed as growth inhibition by BACTEC MGIT method; type: functional
[3] = test system: Plasmodium falciparum; test: Antimalarial activity against chloroquine-sensitive Plasmodium falciparum 3D7 assessed as inhibition of complete maturation into schizonts after 40 hr; type: functional; conditions: 3D7, 40 h
[4] = test system: Bacillus subtilis; test: Antimicrobial activity against Bacillus subtilis MTCC 441 assessed as growth inhibition by broth microdilution method; type: functional
[5] = test system: Escherichia coli; test: Antimicrobial activity against Escherichia coli MTCC 443 assessed as growth inhibition by broth microdilution method; type: functional
[6] = test system: Pseudomonas aeruginosa; test: Antimicrobial activity against Pseudomonas aeruginosa MTCC 1688 assessed as growth inhibition by broth microdilution method; type: functional
[7] = test system: Mycobacterium tuberculosis; test: Antitubercular activity against Mycobacterium tuberculosis H37Rv MTCC 200 assessed as growth inhibition at MIC by L.J. MIC method; type: functional
[8] = test system: Aspergillus niger; test: Antimicrobial activity against Aspergillus niger MTCC 282 assessed as growth inhibition by broth microdilution method; type: functional
[9] = test system: Aspergillus clavatus; test: Antimicrobial activity against Aspergillus clavatus MTCC 1323 assessed as growth inhibition by broth microdilution method; type: functional
[10] = test system: Mycobacterium tuberculosis; test: Antitubercular activity against Mycobacterium tuberculosis H37Rv MTCC 200 assessed as growth inhibition by L.J. MIC method; type: functional
[11] = test system: Vero; test: Cytotoxicity against Chlorocebus aethiops (African green monkey) Vero cells assessed as inhibition of cell viability at equal to and greater than MIC for Mycobacterium tuberculosis H37Rv after 72 hr by MTT assay; type: cell-based; conditions: chlorocebus sabaeus
[12] = test system: Candida albicans; test: Antimicrobial activity against Candida albicans MTCC 227 assessed as growth inhibition by broth microdilution method; type: functional
[13] = test system: Klebsiella pneumoniae; test: Antimicrobial activity against Klebsiella pneumoniae MTCC 109 assessed as growth inhibition by broth microdilution method; type: functional
[14] = test system: Staphylococcus aureus; test: Antimicrobial activity against Staphylococcus aureus MTCC 96 assessed as growth inhibition by broth microdilution method; type: functional
[15] = test system: Streptococcus pyogenes; test: Antimicrobial activity against Streptococcus pyogenes MTCC 442 assessed as growth inhibition by broth microdilution method; type: functional

Row | Molecule | inhibition at 6.25 µg/mL [1] | MIC [2] | MIC [3] | MIC99 [4] | MIC99 [5] | MIC99 [6] | inhibition (Growth inhibition) [7] | MIC99 [8] | MIC99 [9] | MIC [10] | Activity [11] | MIC99 [12] | MIC99 [13] | MIC99 [14] | MIC99 [15]
1 | CO[C@H]1/C=C/O[C@@]2(C)Oc3c(C)c(O)c4c(O)c(c(/C=N/N5CCN(C)CC5)c(O)c4c3C2=O)NC(=O)/C(C)=C\C=C\[C@H](C)[C@H](O)[C@@H](C)[C@@H](O)[C@@H](C)[C@H](OC(C)=O)[C@@H]1C [RIFAMPIN] | 99% | 0.25 µg/mL (≈ 0.304 µM) | – | – | – | – | – | – | – | – | – | – | – | – | –
2 | O=C1C(=O)N(CCSC(=S)N2CCN(c3ccc(Cl)c(Cl)c3)CC2)c2ccc(Cl)cc21 | 98% | > 6.25 µg/mL | 0.061 µg/mL (≈ 0.118 µM) | 100 µg/mL | 500 µg/mL | 250 µg/mL | 96% | > 1000 µg/mL | 500 µg/mL | 100 µg/mL (≈ 194 µM) | Non-toxic | > 1000 µg/mL | 250 µg/mL | 500 µg/mL | 250 µg/mL
3 | O=C1C(=O)N(CCSC(=S)N2CCN(c3ccc(Cl)c(Cl)c3)CC2)c2ccc(Br)cc21 | 99% | 6.25 µg/mL (≈ 11.2 µM) | 0.052 µg/mL (≈ 0.093 µM) | 250 µg/mL | 100 µg/mL | 62.5 µg/mL | 99% | 200 µg/mL | 500 µg/mL | 6.15 µg/mL (≈ 11 µM) | Non-toxic | 200 µg/mL | 250 µg/mL | 250 µg/mL | 62.5 µg/mL
4 | O=C1C(=O)N(CCCSC(=S)N2CCN(c3ccc(Cl)c(Cl)c3)CC2)c2ccc(Br)cc21 | 99% | 6.25 µg/mL (≈ 10.9 µM) | 0.25 µg/mL (≈ 0.436 µM) | 250 µg/mL | 200 µg/mL | 100 µg/mL | 94% | 100 µg/mL | 500 µg/mL | 100 µg/mL (≈ 174 µM) | Non-toxic | 250 µg/mL | 250 µg/mL | 200 µg/mL | 100 µg/mL
5 | O=C1C(=O)N(CCSC(=S)N2CCN(c3ccc(Cl)c(Cl)c3)CC2)c2ccccc21 | 92% | > 6.25 µg/mL | 0.25 µg/mL (≈ 0.52 µM) | 200 µg/mL | 500 µg/mL | 100 µg/mL | 87% | 500 µg/mL | 500 µg/mL | 250 µg/mL (≈ 520 µM) | Non-toxic | > 1000 µg/mL | 500 µg/mL | 250 µg/mL | 100 µg/mL
6 | NYSTATIN | – | – | – | – | – | – | – | 100 µg/mL | 100 µg/mL | – | – | 100 µg/mL | – | – | –
7 | O=C1C(=O)N(CCSC(=S)N2CCN(c3ccc(Cl)c(Cl)c3)CC2)c2ccc([N+](=O)[O-])cc21 | 99% | 6.25 µg/mL (≈ 11.9 µM) | 0.072 µg/mL (≈ 0.137 µM) | 100 µg/mL | 100 µg/mL | 62.5 µg/mL | 99% | 100 µg/mL | 100 µg/mL | 6.25 µg/mL (≈ 11.9 µM) | Non-toxic | 100 µg/mL | 100 µg/mL | 62.5 µg/mL | 100 µg/mL
8 | COC1=CC(=O)C[C@@H](C)[C@]12Oc1c(Cl)c(OC)cc(OC)c1C2=O [GRISEOFULVIN] | – | – | – | – | – | – | – | 100 µg/mL | 100 µg/mL | – | – | 500 µg/mL | – | – | –
9 | CCN(CC)CCCC(C)Nc1ccnc2cc(Cl)ccc12 (configuration not stated) [CHLOROQUINE] | – | – | 0.125 µg/mL (≈ 0.391 µM) | – | – | – | – | – | – | – | – | – | – | – | –
10 | NC(=O)c1cnccn1 [PYRAZINAMIDE] | 99% | 6.25 µg/mL (≈ 50.8 µM) | – | – | – | – | – | – | – | – | – | – | – | – | –
11 | O=C(O)c1cn(C2CC2)c2cc(N3CCNCC3)c(F)cc2c1=O [CIPROFLOXACIN] | – | – | – | ≤ 50 µg/mL | ≤ 25 µg/mL | ≤ 25 µg/mL | – | – | – | – | – | – | ≤ 25 µg/mL | ≤ 25 µg/mL | ≤ 50 µg/mL
12 | CC[C@@H](CO)NCCN[C@@H](CC)CO [ETHAMBUTOL] | 99% | 3.12 µg/mL (≈ 15.3 µM) | – | – | – | – | – | – | – | – | – | – | – | – | –
13 | CCn1cc(C(=O)O)c(=O)c2cc(F)c(N3CCNCC3)cc21 [NORFLOXACIN] | – | – | – | ≤ 10 µg/mL | ≤ 10 µg/mL | ≤ 10 µg/mL | – | – | – | – | – | – | ≤ 10 µg/mL | ≤ 10 µg/mL | ≤ 10 µg/mL
14 | S=C(SSC(=S)N1CCN(c2ccc(Cl)c(Cl)c2)CC1)N1CCN(c2ccc(Cl)c(Cl)c2)CC1 | 99% | 6.25 µg/mL (≈ 10.2 µM) | 0.25 µg/mL (≈ 0.408 µM) | 100 µg/mL | 100 µg/mL | 100 µg/mL | 98% | 100 µg/mL | 100 µg/mL | 6.25 µg/mL (≈ 10.2 µM) | Non-toxic | 200 µg/mL | 62.5 µg/mL | 200 µg/mL | 62.5 µg/mL
15 | O=C1C(=O)N(CCCSC(=S)N2CCN(c3ccc(Cl)c(Cl)c3)CC2)c2ccccc21 | 96% | > 6.25 µg/mL | 0.089 µg/mL (≈ 0.18 µM) | 100 µg/mL | 500 µg/mL | 200 µg/mL | 97% | 500 µg/mL | > 1000 µg/mL | 200 µg/mL (≈ 404 µM) | Non-toxic | > 1000 µg/mL | 500 µg/mL | 500 µg/mL | 500 µg/mL
16 | NNC(=O)c1ccncc1 [ISONIAZID] | – | 0.2 µg/mL (≈ 1.46 µM) | – | – | – | – | – | – | – | – | – | – | – | – | –
17 | O=C1C(=O)N(CCSC(=S)N2CCN(c3ccc(Cl)c(Cl)c3)CC2)c2ccc(F)cc21 | 99% | 6.25 µg/mL (≈ 12.5 µM) | 0.043 µg/mL (≈ 0.0863 µM) | 200 µg/mL | 62.5 µg/mL | 100 µg/mL | 99% | 100 µg/mL | 100 µg/mL | 3.1 µg/mL (≈ 6.22 µM) | Non-toxic | 100 µg/mL | 62.5 µg/mL | 100 µg/mL | 62.5 µg/mL
18 | O=C1C(=O)N(CCCSC(=S)N2CCN(c3ccc(Cl)c(Cl)c3)CC2)c2ccc(F)cc21 | 99% | 6.25 µg/mL (≈ 12.2 µM) | 0.092 µg/mL (≈ 0.18 µM) | 500 µg/mL | 250 µg/mL | 250 µg/mL | 98% | 200 µg/mL | 250 µg/mL | 6.25 µg/mL (≈ 12.2 µM) | Non-toxic | 500 µg/mL | 100 µg/mL | 500 µg/mL | 250 µg/mL
19 | O=C1C(=O)N(CCCSC(=S)N2CCN(c3ccc(Cl)c(Cl)c3)CC2)c2ccc([N+](=O)[O-])cc21 | 99% | 6.25 µg/mL (≈ 11.6 µM) | 0.5 µg/mL (≈ 0.927 µM) | 250 µg/mL | 100 µg/mL | 200 µg/mL | 96% | 250 µg/mL | 200 µg/mL | 100 µg/mL (≈ 185 µM) | Non-toxic | 500 µg/mL | 100 µg/mL | 500 µg/mL | 250 µg/mL
20 | CC1(C)S[C@@H]2[C@H](NC(=O)[C@H](N)c3ccccc3)C(=O)N2[C@H]1C(=O)O [AMPICILLIN] | – | – | – | 100 µg/mL | 100 µg/mL | 100 µg/mL | – | – | – | – | – | – | 100 µg/mL | 250 µg/mL | 100 µg/mL
21 | O=C1C(=O)N(CCCSC(=S)N2CCN(c3ccc(Cl)c(Cl)c3)CC2)c2ccc(Cl)cc21 | 91% | > 6.25 µg/mL | 0.2 µg/mL (≈ 0.378 µM) | 500 µg/mL | 200 µg/mL | 250 µg/mL | 92% | > 1000 µg/mL | > 1000 µg/mL | 250 µg/mL (≈ 473 µM) | Non-toxic | 500 µg/mL | 500 µg/mL | 500 µg/mL | 500 µg/mL
